In ChEMBL document CHEMBL1201862, “PubChem BioAssay data set” (2004):
Calls of active or inactive are those of the source.

Columns and labels:
[1] = molecular target: T1, Carboxy-terminal domain RNA polymerase II polypeptide A small phosphatase 1 (Homo sapiens, UniProt Q9GZU7); experiment: inhibitors of CTDSP1, concentration-response testing, biochemical assay, absorbance-based, actives from ultra-high-throughput screening (AID 540297); type: functional
T1 sequence (Q9GZU7 whole entry): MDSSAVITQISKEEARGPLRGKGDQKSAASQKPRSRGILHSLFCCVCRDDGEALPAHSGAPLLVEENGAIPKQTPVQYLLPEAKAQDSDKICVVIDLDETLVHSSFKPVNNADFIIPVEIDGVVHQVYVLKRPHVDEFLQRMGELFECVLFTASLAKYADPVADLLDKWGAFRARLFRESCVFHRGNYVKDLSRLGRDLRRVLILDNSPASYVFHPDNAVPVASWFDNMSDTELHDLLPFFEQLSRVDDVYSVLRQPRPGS

Cytochrome P450 1A2 = molecular target: T2, Cytochrome P450 1A2 (Homo sapiens, UniProt P05177);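 also: PubChem cytochrome P450 panel assay, CYP1A2 panel member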
T2 sequence (P05177 whole entry): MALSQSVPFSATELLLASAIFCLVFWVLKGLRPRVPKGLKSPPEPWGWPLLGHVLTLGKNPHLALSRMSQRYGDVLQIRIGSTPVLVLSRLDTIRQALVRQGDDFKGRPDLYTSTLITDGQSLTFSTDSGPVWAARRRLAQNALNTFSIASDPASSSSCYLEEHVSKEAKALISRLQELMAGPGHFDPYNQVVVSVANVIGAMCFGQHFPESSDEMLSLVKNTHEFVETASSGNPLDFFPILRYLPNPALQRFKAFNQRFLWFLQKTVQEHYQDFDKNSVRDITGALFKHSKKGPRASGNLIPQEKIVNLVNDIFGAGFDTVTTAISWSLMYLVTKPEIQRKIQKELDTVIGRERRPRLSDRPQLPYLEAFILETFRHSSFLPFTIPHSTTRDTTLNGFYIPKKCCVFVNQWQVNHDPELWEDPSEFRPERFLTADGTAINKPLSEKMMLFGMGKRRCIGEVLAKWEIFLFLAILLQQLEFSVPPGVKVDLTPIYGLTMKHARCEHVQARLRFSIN

[2] = HepG2 cell cytotoxicity, dose response, cytotoxicity control for Shn3 inhibitor project, CellTiter-Glo, cherry-picked (AID 624134); type: functional, cell-based
[3] = control 3'UTR Renilla luciferase suppression, dose response, counter-screen for Shn3 inhibitor project, cell-based, Clone20-Shn3RL, cherry-picked (AID 624133); type: functional
[4] = Shn3 3'UTR reporter inhibitors, dose response, cell-based, Clone20 osteoblasts, firefly luciferase, cherry-picked (AID 624132); type: functional;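 also: firefly luciferase luminescence from reporter carrying the Shn3 3'UTR in osteoblasts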
Paired box protein Pax-8 = Paired box protein Pax-8 (Homo sapiens, UniProt Q06710); experiment: inhibitors of PAX8-driven TPO luciferase reporter, dose response, RMG-I cells, cherry-pick (AID 687027); type: functional, cell-based;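 also: luciferase reporter driven by Pax8 target thyroperoxidase promoter measured by SteadyGlo luminescence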
Chain of Paired box protein Pax-8 (Q06710 whole entry): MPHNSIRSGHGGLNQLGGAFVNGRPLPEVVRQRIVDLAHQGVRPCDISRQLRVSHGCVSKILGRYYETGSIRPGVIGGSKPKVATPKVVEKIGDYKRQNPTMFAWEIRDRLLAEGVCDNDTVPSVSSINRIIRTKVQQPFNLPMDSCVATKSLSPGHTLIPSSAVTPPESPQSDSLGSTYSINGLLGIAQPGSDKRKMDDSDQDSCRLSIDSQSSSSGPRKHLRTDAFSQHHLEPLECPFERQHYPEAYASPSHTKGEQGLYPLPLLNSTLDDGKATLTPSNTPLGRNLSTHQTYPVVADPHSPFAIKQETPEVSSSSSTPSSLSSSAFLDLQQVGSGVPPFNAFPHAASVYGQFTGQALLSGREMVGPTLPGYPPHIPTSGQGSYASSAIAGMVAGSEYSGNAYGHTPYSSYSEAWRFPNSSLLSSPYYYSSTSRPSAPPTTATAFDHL

[5] = molecular target: T3, Endoribonuclease toxin MazF (Escherichia coli K-12, UniProt P0AE70); experiment: MazF toxin RNase activators, dose response, biochemical, fluorescence, single-stranded RNA substrate, uHTS hits (AID 588481); type: functional
T3 sequence (P0AE70 whole entry): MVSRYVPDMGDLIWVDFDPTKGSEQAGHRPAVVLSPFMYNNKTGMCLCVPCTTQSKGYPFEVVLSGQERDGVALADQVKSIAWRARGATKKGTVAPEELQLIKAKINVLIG

[6] = molecular target: T3, Endoribonuclease toxin MazF; experiment: fluorescent RNA oligo signal without MazF, dose response, counter-screen for MazEF activator project, biochemical, fluorescence, single-stranded RNase substrate (AID 588502); type: functional
[7] = molecular target: T4, Microphthalmia-associated transcription factor (Homo sapiens, UniProt O75030); experiment: TRPM1 promoter luciferase signal decrease, dose response, MITF inhibitor project, cell-based, SK-MEL-5, cherry-picked, set 3 (AID 493073); type: functional
T4 sequence (O75030 whole entry): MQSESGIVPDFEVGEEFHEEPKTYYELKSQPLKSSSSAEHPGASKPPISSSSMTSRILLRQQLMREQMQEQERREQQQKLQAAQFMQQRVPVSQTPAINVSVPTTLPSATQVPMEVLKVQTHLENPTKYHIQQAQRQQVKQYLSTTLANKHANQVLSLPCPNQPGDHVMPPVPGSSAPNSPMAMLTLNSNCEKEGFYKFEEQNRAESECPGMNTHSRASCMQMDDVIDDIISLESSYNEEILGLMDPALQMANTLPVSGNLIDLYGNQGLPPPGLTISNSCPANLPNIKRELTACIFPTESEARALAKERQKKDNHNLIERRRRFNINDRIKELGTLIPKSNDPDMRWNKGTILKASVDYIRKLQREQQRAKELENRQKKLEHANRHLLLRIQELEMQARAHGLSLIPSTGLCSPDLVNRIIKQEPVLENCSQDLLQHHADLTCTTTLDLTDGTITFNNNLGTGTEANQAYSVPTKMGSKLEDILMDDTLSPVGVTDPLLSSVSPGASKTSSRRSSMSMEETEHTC

[8] = molecular target: T5, DNA repair protein RAD52 homolog (Homo sapiens, UniProt P43351); type: functional, biochemical
T5 sequence (P43351 whole entry): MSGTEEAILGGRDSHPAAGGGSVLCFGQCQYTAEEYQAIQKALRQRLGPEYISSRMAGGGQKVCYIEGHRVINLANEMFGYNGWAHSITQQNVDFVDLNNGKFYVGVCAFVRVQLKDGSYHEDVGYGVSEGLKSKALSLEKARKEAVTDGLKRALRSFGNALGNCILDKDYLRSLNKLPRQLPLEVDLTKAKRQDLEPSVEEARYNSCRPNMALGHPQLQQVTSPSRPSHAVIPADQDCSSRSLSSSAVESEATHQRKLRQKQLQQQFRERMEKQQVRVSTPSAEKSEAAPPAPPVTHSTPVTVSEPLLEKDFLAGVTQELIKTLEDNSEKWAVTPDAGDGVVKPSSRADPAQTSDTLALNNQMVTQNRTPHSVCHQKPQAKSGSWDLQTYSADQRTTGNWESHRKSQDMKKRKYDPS

[9] = molecular target: T6, Corticotropin-releasing factor receptor 2/Corticotropin-releasing factor-binding protein (Homo sapiens, UniProt P24387+Q13324); experiment: activators of CRF receptor 2 with binding protein – uHTS hits, confirmation (AID 602473); type: functional; details: read-out: EC50_Mean
T6 sequence (Q13324 whole entry): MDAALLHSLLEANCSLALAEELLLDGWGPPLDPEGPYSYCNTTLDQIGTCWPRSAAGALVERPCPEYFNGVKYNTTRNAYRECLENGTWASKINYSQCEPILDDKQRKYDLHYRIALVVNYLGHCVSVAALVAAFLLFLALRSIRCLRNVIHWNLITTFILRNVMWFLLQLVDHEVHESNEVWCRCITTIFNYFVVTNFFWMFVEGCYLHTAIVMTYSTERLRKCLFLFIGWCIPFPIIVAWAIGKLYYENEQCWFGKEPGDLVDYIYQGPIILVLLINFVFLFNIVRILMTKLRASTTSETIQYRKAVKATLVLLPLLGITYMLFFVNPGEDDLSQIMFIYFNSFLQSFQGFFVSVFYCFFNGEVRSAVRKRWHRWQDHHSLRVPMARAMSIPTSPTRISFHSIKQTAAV
T6 sequence (P24387 whole entry): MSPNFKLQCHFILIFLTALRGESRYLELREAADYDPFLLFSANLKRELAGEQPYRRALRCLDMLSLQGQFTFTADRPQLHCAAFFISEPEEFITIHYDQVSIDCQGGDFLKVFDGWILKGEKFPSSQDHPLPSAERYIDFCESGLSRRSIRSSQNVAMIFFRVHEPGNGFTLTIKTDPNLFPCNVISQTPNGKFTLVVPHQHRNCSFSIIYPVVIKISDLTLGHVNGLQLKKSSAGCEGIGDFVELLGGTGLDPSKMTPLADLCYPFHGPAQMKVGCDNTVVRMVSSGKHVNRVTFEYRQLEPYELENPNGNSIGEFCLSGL

Streptokinase A = molecular target: T7, Streptokinase A (Streptococcus pyogenes serotype M1, UniProt P10520); experiment: S. pyogenes streptokinase expression inhibitors, potency, dose response, plasminogen activation absorbance, OD405 (AID 1914); type: functional, Streptococcus pyogenes M1 GAS;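 also: secreted streptokinase activity via plasminogen activation per viability signal from cell pellet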
T7 sequence (P10520 whole entry): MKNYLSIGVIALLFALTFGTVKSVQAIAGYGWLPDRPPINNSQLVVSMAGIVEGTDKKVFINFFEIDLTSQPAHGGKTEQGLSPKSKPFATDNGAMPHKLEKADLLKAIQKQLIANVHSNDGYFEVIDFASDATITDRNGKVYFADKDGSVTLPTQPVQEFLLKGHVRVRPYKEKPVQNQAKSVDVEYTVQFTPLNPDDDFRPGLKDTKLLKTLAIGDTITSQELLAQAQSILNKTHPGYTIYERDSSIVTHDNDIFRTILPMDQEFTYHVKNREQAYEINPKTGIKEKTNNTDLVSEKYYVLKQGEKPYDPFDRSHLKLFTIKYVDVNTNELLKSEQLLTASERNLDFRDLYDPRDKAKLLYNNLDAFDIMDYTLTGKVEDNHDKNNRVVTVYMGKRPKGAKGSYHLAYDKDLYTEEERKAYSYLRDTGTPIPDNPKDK

[10] = test system: Streptococcus sp. 'group A'; experiment: growth inhibition of control SK(-) GAS strain, dose response, counter-screen for streptokinase expression inhibitor project, luminescence, kanamycin, BacTiterGlo, confirmation (AID 1900); type: functional, organism-based
Streptococcus = experiment: Group A Streptococcus viability loss, dose response, counter-screen for streptokinase expression inhibitor project, luminescence, BacTiterGlo (AID 1915); type: functional, organism-based;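 also: potency for reduction of bacterial viability or growth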
[11] = molecular target: T8, RNA-binding protein pos-1 (Caenorhabditis elegans, UniProt G5EF15); experiment: inhibitors of POS-1/mex-3 RNA binding, dose response, biochemical, fluorescence polarization (AID 1964);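 also: purified POS-1 fused to maltose binding protein made in E. coli; potency of compounds blocking POS-1 binding to fluorescent RNA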
T8 sequence (G5EF15 whole entry): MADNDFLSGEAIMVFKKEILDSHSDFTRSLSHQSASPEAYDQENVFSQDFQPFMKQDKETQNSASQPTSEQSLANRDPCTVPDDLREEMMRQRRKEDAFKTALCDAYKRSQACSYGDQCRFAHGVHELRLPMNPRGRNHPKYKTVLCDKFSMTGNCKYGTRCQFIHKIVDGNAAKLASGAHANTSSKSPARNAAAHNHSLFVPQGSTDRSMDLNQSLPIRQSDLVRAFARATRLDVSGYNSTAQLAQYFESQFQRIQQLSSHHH

[12] = molecular target: T9, Zinc finger protein mex-5 (Caenorhabditis elegans, UniProt Q9XUB2); experiment: MEX-5/TCR-2 RNA interaction inhibitors, dose response, biochemical, C. elegans, fluorescence polarization (AID 1960)
T9 sequence (Q9XUB2 whole entry): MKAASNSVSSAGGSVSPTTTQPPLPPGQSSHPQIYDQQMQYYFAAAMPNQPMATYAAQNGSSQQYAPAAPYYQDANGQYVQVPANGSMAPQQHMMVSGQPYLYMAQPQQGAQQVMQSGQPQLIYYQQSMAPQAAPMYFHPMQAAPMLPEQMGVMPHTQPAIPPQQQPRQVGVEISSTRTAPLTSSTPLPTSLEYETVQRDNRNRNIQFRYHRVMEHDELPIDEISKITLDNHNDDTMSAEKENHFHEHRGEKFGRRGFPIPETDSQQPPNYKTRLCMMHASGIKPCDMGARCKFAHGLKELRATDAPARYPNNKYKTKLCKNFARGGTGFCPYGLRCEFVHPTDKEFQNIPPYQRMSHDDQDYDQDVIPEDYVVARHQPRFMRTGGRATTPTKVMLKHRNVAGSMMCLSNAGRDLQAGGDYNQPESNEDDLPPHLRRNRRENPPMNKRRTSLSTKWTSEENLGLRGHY

In the case of O=C(N/N=C/c1cccc(OC2CSC2)c1)c1ccccc1O, the IC50 [1] is reported as 6.78 µM (active) and the AC50 (Cytochrome P450 1A2) is reported as 3.16 µM (inconclusive).
In the case of COc1ccc(Br)cc1/C=C(\C(=O)O)c1ccc(S(=O)(=O)N2CCCC2)s1, the IC50 [1] is reported as 8.63 µM (active).
For CN(C)CC(C(=O)Cc1ccccc1)c1ccccc1 (stereo not given), the AC50 [2] was 14.5 µM (active), the AC50 [3] was 7.58 µM (active) and the AC50 [4] was 7.81 µM (active). For the same compound, the AC50 (Paired box protein Pax-8) was 1.71 µM (active).
For O=C(NCc1ccco1)c1ccc2c(=O)n(Cc3ccco3)c(SCC(=O)N3CCCC3)nc2c1, the IC50 [1] was 6.12 µM (active).
In the case of CC(=O)C(C[N+]1(C)CCCCC1)=NO, the IC50 [1] is reported as 3.4 µM (active).
For Cc1ccc(-n2nnnc2SCc2nc3sc(C)c(C)c3c(=O)[nH]2)cc1, the EC50 [5] was > 99 µM (inactive) and the EC50 [6] was > 99 µM (inactive).
For CC(=O)Nc1nc(C)c(-c2csc(Nc3cccc(C(C)=O)c3)n2)s1, the AC50 [2] was 21 µM (active), the AC50 [7] was 8.38 µM (active) and the AC50 [3] was < 0.5 µM (active). For the same compound, the AC50 [4] was 1.67 µM (active).
With CN1CCN(CCCNc2nc3ccccc3c3nc(-c4ccccc4)nn23)CC1 the AC50 [8] was 14.2 µM (active).
In the case of Cc1cc(/C=C2\C(=O)NC(=O)N(c3cccc(Br)c3)C2=O)c(C)n1C, the EC50 [5] is reported as > 99 µM (inactive), the EC50 [9] is reported as 26.2 µM (active) and the EC50 [6] is reported as > 99 µM (inactive).
In the case of N#C/C(=C(/O)c1ccc([N+](=O)[O-])o1)c1nc2ccccc2[nH]1, the EC50 (Streptokinase A) is reported as 27.6 µM (active), the EC50 [10] is reported as 3.57 µM (active) and the EC50 (Streptococcus) is reported as 66 µM (active). For the same compound, the EC50 [5] was > 99 µM (inactive), the AC50 [7] was 3.8 µM (active) and the EC50 [6] was 5.53 µM (active).
In the case of Cc1ccc(CCNC(=O)c2ccc3nc4ccccc4c(=O)n3c2)cc1, the IC50 [1] is reported as 14.2 µM (active).
In the case of O=[N+]([O-])c1ccc(/C=C/c2ccc3cccc(O)c3n2)cc1, the EC50 [5] is reported as > 99 µM (inactive) and the EC50 [6] is reported as > 99 µM (inactive).
With CCN1CCN(Cc2c(C(=O)N/N=C(\C)c3ccc(Cl)cc3)nnn2-c2nonc2N)CC1 the EC50 [11] was > 300 µM (not active), the AC50 [8] was 8.73 µM (active) and the EC50 [12] was > 300 µM (not active).
With Cc1cc(C)c(C#N)c(SCC(=O)c2cccs2)n1 the EC50 [5] was 18 µM (active) and the EC50 [6] was > 99 µM (inactive).
With CCn1c(/C=C/c2c(C)n(CC)c3ccccc23)nc2ccccc2c1=O the EC50 [5] was > 99 µM (inactive) and the EC50 [6] was > 99 µM (inactive).
